Laboratory results from patent US20090028818A1, “Heterocyclic antiviral compounds” (Roche Palo Alto LLC, priority 2007, published 2009).

System: NLBal pseudotyped HIV-1
Test: Antiviral assay, luciferase reporter in JC53BL cells
Format: cell-based
Details: Human immunodeficiency virus 1, JC53BL, 72 h, read-out: Antiviral Assay IC50
Description: The sensitivity of a recombinant HIV-1 virus pseudotyped with the envelope proteins of the CCR5-tropic virus NLBal to test compounds was determined in a Luciferase reporter assay using JC53BL cells. NLBal pseudotyped HIV-1 was generated by calcium phosphate transfection of 293T cells (ATCC) with equal amounts of DNA of an envelope-deleted HIV-1 plasmid and of a NLBal envelope expression plasmid. The media (DMEM, 10% fetal bovine serum, 1% Penicillin/streptomycin, 1% Glutamine, all Gibco) was changed 16 h post-transfection and virus containing supernatant was harvested 48 h post-transfection. To determine the sensitivity of NLBal pseudotyped HIV-1, 25.000 JC53BL cells (NIH AIDS Reagent Program) were infected with NLBal pseudotyped HIV-1 in presence of a drug gradient in white 96 well plates (Greiner Bio-one). The volume was adjusted to 200 μL using assay media (DMEM, 10% fetal bovine serum, 1% Penicillin/streptomycin, 1% Glutamine). After incubation at 37° C., 90% relative humidity, 5% CO2 for 3 days, 50 μL of Steady-Glo® Luciferase reagent (Promega) was added, incubated for 5 min at RT and luminescence was measured using a luminometer (Luminoskan, Thermo). The 50% and 90% inhibitory concentrations were calculated using Microsoft XL Fit 4 software.
Work on `CCCCC1CN(C2CCOCC2)C(=O)N1C1CCN(C2(C)CCN(C(=O)c3c(C)cc(C#N)nc3C)CC2)CC1` (stereo not shown) [I-1, 5-{4-[5-Butyl-2-oxo-3-(tetrahydro-pyran-4-yl)-imidazolidin-1-yl]-4′-methyl-[1,4′]bipiperidinyl-1′-carbonyl}-4,6-dimethyl-pyridine-2-carbonitrile] yielded an IC50 of 19.8 nM.

System: collagen-induced arthritis
Test: not given
Details: collagen-induced arthritis model; cited from earlier work
In the case of TAK-779, the “incidence and severity of arthritis” value is given as “reduce both the incidence and severity of arthritis”.

Molecular target: T1, Human CCR5 receptor (Homo sapiens, UniProt P51681)
T1 construct: expressed in transfected cells
T1 sequence (P51681 whole entry): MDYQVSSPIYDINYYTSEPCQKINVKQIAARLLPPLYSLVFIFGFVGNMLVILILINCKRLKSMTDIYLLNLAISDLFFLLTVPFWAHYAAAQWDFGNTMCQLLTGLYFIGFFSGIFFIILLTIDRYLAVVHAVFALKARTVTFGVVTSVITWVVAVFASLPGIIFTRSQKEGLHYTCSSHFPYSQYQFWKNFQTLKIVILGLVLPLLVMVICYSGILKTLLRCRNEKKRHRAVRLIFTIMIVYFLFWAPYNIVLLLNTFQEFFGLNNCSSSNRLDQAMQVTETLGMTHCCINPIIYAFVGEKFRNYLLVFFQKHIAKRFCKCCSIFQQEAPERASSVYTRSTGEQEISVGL
Test: Human CCR5 receptor-ligand binding assay
Details: CHO-Gα16-hCCR5 cells, 125I RANTES radioligand
Source text: Human CCR5 receptor (Genebank ID: 29169292) was cloned into mammalian expression vector, pTarget (Promega). The construct was transfected into CHO-Gα16 cells by using Fugene Reagent (Roche). Clones were selected under antibiotic pressure (G418 and Hygromycin) and sorted 4 times with a fluorescence activates cell sorter and a monoclonal antibody specific for CCR5 receptor (BD Biosciences Pharmigen, Mab 2D7, Cat. No. 555993). The clone with highest expression (100,000 copies per cell) was chosen for the binding assays.
Adherent cells in […] tissue culture flask (˜90% confluent) were harvested using 1 mM EDTA in PBS (phosphate-buffered saline) without Ca^2+ and Mg^2+. Cells were washed twice with PBS containing no Ca^2+ and Mg^2+. CHO-Gα16-hCCR5 cells were then resuspended (1×10^6/mL) in ice cold binding buffer (50 mM HEPES, 1 mM CaCl2, 5 mM MgCl2, 0.5% BSA, 0.05% NaN3, pH 7.24), pH 7.4), supplemented with freshly made 0.5% BSA and 0.05% NaN3.
Eighty μl CHO-Gα16-hCCR5 (1×10^6/mL) cells were added to 96 well plates. All dilutions were made in binding buffer (50 mM HEPES, 1 mM CaCl2, 5 mM MgCl2, 0.5% BSA, 0.05% NaN3, pH 7.24).
The plates were incubated on a cell shaker at RT for 2 h with a final concentration of 0.1 nM ^125I RANTES or ^125I MIP-1α or ^125I MIP-1β. The compound dilutions were made in PBS, 1% BSA. Total reaction volume was 100 μl per well. The test compounds were added to the cells prior to the addition of radioligand.
After incubation, the cells were harvested onto GF/C filter plates using Packard cell harvester. Filters were pretreated with 0.3% PEI/0.2% BSA for 30 min. The filter plate was washed rapidly 5 times with 25 mM HEPES, 500 mM NaCl, 1 mM CaCl2 and 5 mM MgCl2 adjusted to pH 7.1. Plates were dried in oven (70° C.) for 20 min, added with 40 μl scintillation fluid and sealed with Packard TopSeal-A. Packard Top Count was used to measure of the radioactivity for 1 min per well.
Total binding was determined with control wells added with radioisotope and buffer and the non-specific binding was determined using an excess cold RANTES to some of the control wells. Specific binding was determined by subtracting the non-specific form total binding. Results are expressed as the percentage of specific ^125I RANTES binding. IC50 values were determined using varying concentrations of the test ligand in triplicates and the data was analyzed using GraphPad Prism (GraphPad, San Diego, Calif.). c, […]
In the case of `CCCCC1CN(C2CCOCC2)C(=O)N1C1CCN(C2(C)CCN(C(=O)c3c(C)cc(C#N)nc3C)CC2)CC1` (stereo not shown) [I-1, 5-{4-[5-Butyl-2-oxo-3-(tetrahydro-pyran-4-yl)-imidazolidin-1-yl]-4′-methyl-[1,4′]bipiperidinyl-1′-carbonyl}-4,6-dimethyl-pyridine-2-carbonitrile], the IC50 is reported as 8.5 nM.
For `CCCCC1CN(C2CCOCC2)C(=O)N1C1CCN(C2(C)CCN(C(=O)c3c(C)ncnc3C)CC2)CC1` (stereo not shown) [I-2], the IC50 was 969 nM.
Compound `CCCCC1CN(CC2CCOCC2)C(=O)N1C1CCN(C2(C)CCN(C(=O)c3c(C)ncnc3C)CC2)CC1` (stereo not shown) [I-3, 4-Butyl-3-[1′-(4,6-dimethyl-pyriridine-5-carbonyl)-4′-methyl-[1,4′]bipiperidinyl-4-yl]-1-(tetrahydro-pyran-4-ylmethyl)-imidazolidin-2-one] has an IC50 of 110 nM.
Work on `CCCCC1CN(CC2CCOCC2)C(=O)N1C1CCN(C2(C)CCN(C(=O)c3c(C)cc(C#N)nc3C)CC2)CC1` (stereo not shown) [I-4] yielded an IC50 of 4.4 nM.
Work on `Cc1ncnc(C)c1C(=O)N1CCC(C)(N2CCC(N3C(=O)N(CC4CCOCC4)C[C@H]3c3ccccc3)CC2)CC1` [I-5, (R)-3-[1′-(4,6-Dimethyl-pyrimidine-5-carbonyl)-4′-methyl-[1 ,4′]bipiperidinyl-4-yl]-4-phenyl-1-(tetrahydro-pyran-4-ylmethyl)-imidazolidin-2-one] yielded an IC50 of 23.7 nM.
For `Cc1ncnc(C)c1C(=O)N1CCC(C)(N2CCC(N3C(=O)N(CC4CCOCC4)CC3c3ccccc3)CC2)CC1` (stereo not shown) [I-6, 3-[1′-(4,6-Dimethyl-pyrimidine-5-carbonyl)-4′-methyl-[1,4′]bipiperidinyl-4-yl]-4-phenyl-1-(tetrahydro-pyran4-ylmethyl)-imidazolidin-2-one], the IC50 was 27.5 nM.
In the case of `Cc1cc(C#N)nc(C)c1C(=O)N1CCC(C)(N2CCC(N3C(=O)N(CC4CCOCC4)C[C@H]3c3ccccc3)CC2)CC1` [I-7], the IC50 is reported as 11.2 nM.
Work on `Cc1noc(C(F)(F)F)c1C(=O)N1CCC(C)(N2CCC(N3C(=O)N(CC4CCOCC4)C[C@H]3c3ccccc3)CC2)CC1` [I-8] yielded an IC50 of 5.1 nM.
`CCO[C@H]1CC[C@H](CN2C[C@@H](c3ccccc3)N(C3CCN(C4(C)CCN(C(=O)c5c(C)ncnc5C)CC4)CC3)C2=O)CC1` [I-9] gave an IC50 of 12.6 nM.
For `CCO[C@H]1CC[C@H](CN2C[C@@H](c3ccccc3)N(C3CCN(C4(C)CCN(C(=O)c5c(C)cc(C#N)nc5C)CC4)CC3)C2=O)CC1` [I-10], the IC50 was 10.6 nM.
Compound `CCO[C@H]1CC[C@H](CN2C[C@@H](c3ccccc3)N(C3CCN(C4(C)CCN(C(=O)c5c(C)noc5C(F)(F)F)CC4)CC3)C2=O)CC1` [I-11] has an IC50 of 6.8 nM.
Compound `Cc1cc(C#N)nc(C)c1C(=O)N1CCC(C)(N2CCC(N3C(=O)N(C4CCOCC4)C[C@H]3c3ccccc3)CC2)CC1` [I-12] has an IC50 of 90 nM.
With `Cc1ncnc(C)c1C(=O)N1CCC(C)(N2CCC(N3C(=O)N(C4CCOCC4)C[C@H]3c3ccccc3)CC2)CC1` [I-13] the IC50 was 90 nM.
For `Cc1ncnc(C)c1C(=O)N1CCC(C)(N2CCC(N3C(=O)N(CC4CCN(CC(F)F)CC4)C[C@H]3c3ccccc3)CC2)CC1` [I-14, (R)-1-[1-(2,2-Difluoro-ethyl)-piperidin-4-ylmethyl]-3-[1′-(4,6-dimethyl-pyrimidine-5-carbonyl)-4′-methyl-[1,4′]bipiperidinyl-4-yl]-4-phenyl-imidazolidin-2-one], the IC50 was 26.4 nM.
With `Cc1cc(C#N)nc(C)c1C(=O)N1CCC(C)(N2CCC(N3C(=O)N(CC4CCN(CC(F)F)CC4)C[C@H]3c3ccccc3)CC2)CC1` [I-15] the IC50 was 18.3 nM.
`COC(=O)N1CCC(CN2C[C@@H](c3ccccc3)N(C3CCN(C4(C)CCN(C(=O)c5c(C)ncnc5C)CC4)CC3)C2=O)CC1` [I-16, 4-{(R)-3-[1′-(4,6-Dimethyl-pyrimidine-5-carbonyl)-4′-methyl-[1,4′]bipiperidinyl-4-yl]-2-oxo-4-phenyl-imidazolidin-1-ylmethyl}-piperidine-1-carboxylic acid methyl ester] showed an IC50 of 25.8 nM.
Work on `COC(=O)N1CCC(CN2C[C@@H](c3ccccc3)N(C3CCN(C4(C)CCN(C(=O)c5c(C)cc(C#N)nc5C)CC4)CC3)C2=O)CC1` [I-17] yielded an IC50 of 35.7 nM.
For `Cc1cc(C#N)nc(C)c1C(=O)N1CCC(C)(N2CCC(N3C(=O)N(CC4CCN(S(C)(=O)=O)CC4)C[C@H]3c3ccccc3)CC2)CC1` [I-18, 5-{4-[(R)-3-(1-Methanesulfonyl-piperidin4-ylmethyl)-2-oxo-5-phenyl-imidazolidin-1-yl]-4′-methyl-[1,4′]bipiperidinyl-1′-carbonyl}-4,6-dimethyl-pyridine-2-carbonitrile], the IC50 was 36.6 nM.
In the case of `Cc1ncnc(C)c1C(=O)N1CCC(C)(N2CCC(N3C(=O)N(CC4CCN(S(C)(=O)=O)CC4)C[C@H]3c3ccccc3)CC2)CC1` [I-19], the IC50 is reported as 117 nM.
Compound `CC(=O)N1CCC(CN2C[C@@H](c3ccccc3)N(C3CCN(C4(C)CCN(C(=O)c5c(C)cc(C#N)nc5C)CC4)CC3)C2=O)CC1` [I-20, 5-{4-[(R)-3-(1-Acetyl-piperidin-4-ylmethyl)-2-oxo-5-phenyl-imidazolidin-1-yl]-4′-methyl-[1,4′]bipiperidinyl-1′-carbonyl}-4,6-dimethyl-pyridine-2-carbonitrile] has an IC50 of 42.5 nM.
`Cc1cc(C#N)nc(C)c1C(=O)N1CCC(C)(N2CCC(N3C(=O)N(CC4CCN(C(N)=O)CC4)C[C@H]3c3ccccc3)CC2)CC1` [I-21, 4-{(R)-3-[1′-(6-Cyano-2,4-dimethyl-pyridine-3-carbonyl)-4′-methyl-[1,4′]bipiperidinyl-4-yl]-2-oxo-4-phenyl-imidazolidin-1-ylmethyl}-piperidine-1-carboxylic acid amide] showed an IC50 of 44 nM.
Work on `Cc1cc(C#N)nc(C)c1C(=O)N1CCC(C)(N2CCC(N3C(=O)N(C4CCC(O)CC4)C[C@H]3c3ccccc3)CC2)CC1` (stereo partly drawn) [I-23, 5-{4-[(R)-3-(4-Hydroxy-cyclohexyl)-2-oxo-5-phenyl-imidazolidin-1-yl]-4′-methyl-[1,4′]bipiperidinyl-1′-carbonyl}-4,6-dimethyl-pyridine-2-carbonitrile] yielded an IC50 of 20.6 nM.
For `Cc1noc(C(F)(F)F)c1C(=O)N1CCC(C)(N2CCC(N3C(=O)N(C[C@H]4CC[C@H](O)CC4)C[C@H]3c3ccccc3)CC2)CC1` [I-24, (R)-1-(4-Hydroxy-cyclohexylmethyl)-3-[4′-methyl-1′-(3-methyl-5-trifluoromethyl-isoxazole-4-carbonyl)-[1,4′]bipiperidinyl-4-yl]-4-phenyl-imidazolidin-2-one], the IC50 was 7.1 nM.
With `Cc1cc(C#N)nc(C)c1C(=O)N1CCC(C)(N2CCC(N3C(=O)N(CC4CCOC4)CC3c3ccccc3)CC2)CC1` (stereo not shown) [I-25] the IC50 was 54.4 nM.
`CCO[C@H]1CC[C@H](CN2C[C@@H](c3ccccn3)N(C3CCN(C4(C)CCN(C(=O)c5c(C)cc(C#N)nc5C)CC4)CC3)C2=O)CC1` [I-26, 5-{4-[(S)-3-(4-Ethoxy-cyclohexylmethyl)-2-oxo-5-pyridin-2-yl-imidazolidin-1-yl]-4′-methyl-[1,4′]bipiperidinyl-1′-carbonyl}-4,6-dimethyl-pyridine-2-carbonitrile] showed an IC50 of 24.7 nM.
Work on `Cc1ncnc(C)c1C(=O)N1CCC(C)(N2CCC(N3C(=O)N(CC4CCOCC4)CC3c3cccc(F)c3)CC2)CC1` (stereo not shown) [I-27] yielded an IC50 of 89.4 nM.
